From article PMC11378702 (RSC Advances, 2024)
Where two headings read alike, the source gives them in different places.

Experiments:
[1] = system: A549; assay: cells; type: cell-based; conditions: Homo sapiens, A549, 48 h, read-out: IC50 (μM) A549
[2] = system: H1975; assay: MTT anti-proliferative assay, H1975 cells; type: cell-based; conditions: Homo sapiens, NCI-H1975, 48 h, read-out: IC50 (μM) H1975
[3] = target: EGFR^WT (Homo sapiens, UniProt P00533); assay: biochemical
[4] = target: EGFR^T790M (Homo sapiens, UniProt P00533, T790M); assay: biochemical; type: biochemical
Sequence of EGFR^T790M (P00533 25-1210 T790M): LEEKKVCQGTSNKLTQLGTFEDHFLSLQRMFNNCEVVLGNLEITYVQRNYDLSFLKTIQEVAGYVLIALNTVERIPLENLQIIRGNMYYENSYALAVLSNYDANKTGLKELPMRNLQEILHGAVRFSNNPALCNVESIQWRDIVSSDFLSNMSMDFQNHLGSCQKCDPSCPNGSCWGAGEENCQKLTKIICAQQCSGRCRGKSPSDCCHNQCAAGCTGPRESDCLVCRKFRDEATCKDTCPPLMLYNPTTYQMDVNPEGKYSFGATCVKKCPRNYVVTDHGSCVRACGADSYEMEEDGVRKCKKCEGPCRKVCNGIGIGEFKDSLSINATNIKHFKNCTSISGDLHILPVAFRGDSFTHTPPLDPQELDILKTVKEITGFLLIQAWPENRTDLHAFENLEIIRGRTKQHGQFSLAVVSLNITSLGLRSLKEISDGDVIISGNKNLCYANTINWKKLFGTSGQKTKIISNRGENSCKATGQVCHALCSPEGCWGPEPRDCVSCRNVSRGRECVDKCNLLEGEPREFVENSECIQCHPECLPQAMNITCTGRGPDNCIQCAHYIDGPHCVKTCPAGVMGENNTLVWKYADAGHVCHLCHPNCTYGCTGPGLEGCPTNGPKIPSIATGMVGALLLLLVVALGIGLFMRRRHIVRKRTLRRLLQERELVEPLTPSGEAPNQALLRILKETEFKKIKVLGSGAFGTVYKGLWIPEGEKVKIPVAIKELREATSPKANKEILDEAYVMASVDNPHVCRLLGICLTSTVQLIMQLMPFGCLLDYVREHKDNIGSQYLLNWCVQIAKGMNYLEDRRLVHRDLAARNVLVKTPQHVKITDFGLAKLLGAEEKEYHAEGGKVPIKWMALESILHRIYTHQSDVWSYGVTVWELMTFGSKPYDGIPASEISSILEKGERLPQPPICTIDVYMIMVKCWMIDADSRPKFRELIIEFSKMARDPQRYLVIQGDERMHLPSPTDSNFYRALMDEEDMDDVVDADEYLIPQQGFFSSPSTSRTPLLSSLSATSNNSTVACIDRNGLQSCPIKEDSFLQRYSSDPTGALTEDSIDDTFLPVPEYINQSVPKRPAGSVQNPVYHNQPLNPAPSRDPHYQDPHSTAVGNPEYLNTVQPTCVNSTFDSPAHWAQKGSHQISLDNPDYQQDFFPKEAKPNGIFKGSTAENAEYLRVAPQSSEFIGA

[5] = system: A431; assay: MTT anti-proliferative assay, A431 cells; type: cell-based, human; conditions: read-out: IC50 (μM) A431

Sequence of EGFR^WT (P00533 25-1210): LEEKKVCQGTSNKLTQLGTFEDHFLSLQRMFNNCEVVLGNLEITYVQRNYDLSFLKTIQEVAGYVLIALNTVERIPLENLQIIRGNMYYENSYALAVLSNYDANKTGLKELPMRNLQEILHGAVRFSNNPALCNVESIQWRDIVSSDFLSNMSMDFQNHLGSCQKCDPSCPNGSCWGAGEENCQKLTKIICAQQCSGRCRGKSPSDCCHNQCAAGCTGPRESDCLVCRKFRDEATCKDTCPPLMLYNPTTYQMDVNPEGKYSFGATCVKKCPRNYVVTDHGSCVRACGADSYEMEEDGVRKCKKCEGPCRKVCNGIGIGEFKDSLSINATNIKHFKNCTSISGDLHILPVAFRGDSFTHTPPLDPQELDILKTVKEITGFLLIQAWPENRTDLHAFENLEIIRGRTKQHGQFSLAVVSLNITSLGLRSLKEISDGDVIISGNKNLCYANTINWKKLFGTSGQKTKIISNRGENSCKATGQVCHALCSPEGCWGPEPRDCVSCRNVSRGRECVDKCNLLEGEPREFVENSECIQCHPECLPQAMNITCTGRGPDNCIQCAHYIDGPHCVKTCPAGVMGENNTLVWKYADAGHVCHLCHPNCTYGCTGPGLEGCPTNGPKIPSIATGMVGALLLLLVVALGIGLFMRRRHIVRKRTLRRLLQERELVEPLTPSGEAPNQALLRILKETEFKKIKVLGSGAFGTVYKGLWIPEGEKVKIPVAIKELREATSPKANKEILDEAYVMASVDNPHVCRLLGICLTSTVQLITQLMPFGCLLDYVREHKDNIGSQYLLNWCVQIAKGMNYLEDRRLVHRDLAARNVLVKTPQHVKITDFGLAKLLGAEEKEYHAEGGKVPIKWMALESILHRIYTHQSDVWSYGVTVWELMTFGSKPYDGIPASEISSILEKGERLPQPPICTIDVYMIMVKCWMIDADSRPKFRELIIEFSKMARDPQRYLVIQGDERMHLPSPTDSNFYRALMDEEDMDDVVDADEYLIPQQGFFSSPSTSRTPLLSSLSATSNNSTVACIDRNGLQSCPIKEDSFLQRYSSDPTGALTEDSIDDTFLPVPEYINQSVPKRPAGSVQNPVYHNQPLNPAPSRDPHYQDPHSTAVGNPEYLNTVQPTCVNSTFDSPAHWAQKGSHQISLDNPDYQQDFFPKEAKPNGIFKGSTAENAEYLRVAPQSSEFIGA

Row | Compound | IC50 [1] | IC50 [2] | IC50 [3] | IC50 [4] | IC50 ([5]; MTT, two-day incubation, mean ± SD, n = 3) | fold more potent than gefitinib (EGFR^T790M IC50) ([4]; relative to gefitinib) | IC50 ([5]; Homo sapiens, A-431, 48 h)
1 | CCC(=O)C(=NNc1ccc(S(=O)(=O)Nc2ncccn2)cc1)C(C)=O [Compound 5, 4-(2-(2,4-Dioxohexan-3-ylidene)hydrazineyl)-N-(pyrimidin-2-yl)benzenesulfonamide] | 19.2 ± 3.09 µM | 20.1 ± 2.21 µM | 0.0492 ± 0.0067 µM | 0.0936 ± 0.0085 µM |  |  | 
2 | CC(=O)C(=NNc1ccc(S(=O)(=O)Nc2ncccn2)cc1)C(C)=O [Compound 6, 4-(2-(2,4-Dioxopentan-3-ylidene)hydrazineyl)-N-(pyrimidin-2-yl)benzenesulfonamide] | 16.6 ± 0.92 µM | 15.7 ± 0.21 µM | 0.0526 ± 0.0093 µM | 0.0668 ± 0.0104 µM |  |  | 
3 | N#CC(=NNc1ccc(S(=O)(=O)Nc2ncccn2)cc1)C(N)=S [Compound 10, 2-Cyano-(2-(4-(N-(pyrimidin-2-yl)sulfamoyl)phenyl)hydrazono)ethanethioamide] | 19.7 ± 0.34 µM | 15.8 ± 2.48 µM | 0.0315 ± 0.0058 µM | 0.0608 ± 0.0062 µM |  |  | 
4 | N#CC(=NNc1ccc(S(=O)(=O)Nc2ncccn2)cc1)C(N)=C(C#N)C#N [Compound 11, 2-Amino-3,3-dicyano-N-(4-(N-(pyrimidin-2-yl)sulfamoyl)phenyl)acrylohydrazonoyl cyanide] | 13.6 ± 1.32 µM | 14.1 ± 1.23 µM | 0.0477 ± 0.0114 µM | 0.133 ± 0.0162 µM |  |  | 15.1 ± 0.58 µM
5 | CSC1=NC(=N)C(=NNc2ccc(S(=O)(=O)Nc3ncccn3)cc2)C(N)=C1C#N [Compound 13, 4-{-2-[4-Amino-5-cyano-2-imino-6-(methylthio)pyridin-3(2H)-ylidene]hydrazino}-N-pyrimidin-2-ylbenzenesulfonamide] | 15.5 ± 1.34 µM | 17.1 ± 1.62 µM | 0.0417 ± 0.0082 µM | 0.215 ± 0.0152 µM |  |  | 

Stronger by IC50 [2], values ahead:

Row | IC50 [1] | IC50 [2] | IC50 [3] | IC50 [4] | IC50 ([5]; MTT, two-day incubation, mean ± SD, n = 3) | fold more potent than gefitinib (EGFR^T790M IC50) ([4]; relative to gefitinib) | Compound | IC50 ([5]; Homo sapiens, A-431, 48 h)
6 | 4.78 ± 0.12 µM | 2.31 ± 0.23 µM | 0.0232 ± 0.0001 µM | 0.0096 ± 0.0032 µM | 4.12 ± 0.54 µM | 38 fold | CC(=O)C(=NNc1ccc(S(=O)(=O)Nc2ncccn2)cc1)C(=O)c1ccccc1 [Compound 8, 4-[2-(1-Benzoyl-2-oxopropylidene)hydrazino]-N-pyrimidin-2-ylbenzenesulfonamide] | 
7 | 15 ± 1.27 µM | 13.1 ± 0.67 µM | 0.0435 ± 0.0002 µM | 0.0171 ± 0.0001 µM |  |  | CCOC(=O)/C(C#N)=N\Nc1ccc(S(=O)(=O)Nc2ncccn2)cc1 [Compound 9, Ethyl (Z)-2-cyano-2-(2-(4-(N-(pyrimidin-2-yl)sulfamoyl)phenyl)hydrazineylidene)acetate] | 
8 | 5.15 ± 0.3 µM | 6.12 ± 0.24 µM | 0.0145 ± 0.0075 µM | 0.0354 ± 0.0086 µM |  |  | CCOC(=O)C(=NNc1ccc(S(=O)(=O)Nc2ncccn2)cc1)C(=O)OCC [Compound 12, Diethyl 2-(2-(4-(N-(pyrimidin-2-yl)sulfamoyl)phenyl)hydrazineylidene)malonate] | 
9 | 7.56 ± 0.27 µM | 4.59 ± 0.43 µM | 0.0153 ± 0.0031 µM | 0.0243 ± 0.0034 µM |  |  | CSc1nc(NC(=O)C(=NNc2ccc(S(=O)(=O)Nc3ncccn3)cc2)C(C)=O)cc(N)c1C#N [Compound 14, N-(4-Amino-5-cyano-6-(methylthio)pyridin-2-yl)-3-oxo-2-{[4-(pyrimidin-2-ylsulfamoyl)phenyl]hydrazono}butanamide] | 
10 | 17.5 ± 2.34 µM | 12.9 ± 1.23 µM |  |  |  |  | C#Cc1cccc(Nc2ncnc3cc(OCCOC)c(OCCOC)cc23)c1 [Erlotinib, reference compound] | 
11 |  | 0.93 ± 0.09 µM |  |  |  |  | C=CC(=O)Nc1cc(Nc2nccc(-c3cn(C)c4ccccc34)n2)c(OC)cc1N(C)CCN(C)C [Osimertinib, reference compound] | 
